This note sets out measurements from publication doi:10.64898/2025.12.31.697154v2, “Two phytohormones synergistically induce parasitic weeds seed germination via KAI2d receptors” (biorxiv, 2026).

One assay has as its target T1, OmKAI2d3.
T1 construct: gene KAI2d3; soluble recombinant protein
Briefly: isothermal titration calorimetry. In kind it is binding, Orobanche minor. The conditions noted are these: suggested allosteric site.

The test system of the next assay is T2, OmKAI2d3–OmSMAX1D1M.
T2 construct: gene KAI2d3; KAI2d3 plus SMAX1 D1M domain only; ligand-induced complex in TR-FRET; borders and tags not given
Nature of the assay: TR-FRET, ligand-induced KAI2d–SMAX1 D1M interaction. The class given is biochemical, Orobanche minor. The settings on record: without rac-GR24; 300 min.

Another assay has as its system T3, OmKAI2d10–OmSMAX1D1M.
T3 construct: gene KAI2d10; KAI2d10 plus SMAX1 D1M domain only; ligand-induced complex in TR-FRET; borders and tags not given
The assay is described as above. The settings on record: without rac-GR24; 300 min. In kind it is biochemical, Orobanche minor.

The next assay deals with T4, OmKAI2d9–OmSMAX1D1M.
T4 construct: gene KAI2d9; KAI2d9 plus SMAX1 D1M domain only; ligand-induced complex in TR-FRET; borders and tags not given
The assay is described as above. In kind it is biochemical, Orobanche minor. The settings on record: without rac-GR24; 300 min.

As for `CC/C=C\C[C@@H]1C(=O)C=C[C@@H]1CCCCCCCC(=O)O` [cis-OPDA], the Kd on OmKAI2d3 amounted to 19.8 µM. Also, the EC50 stood at 217 µM in the assay on OmKAI2d3–OmSMAX1D1M, 104 µM with OmKAI2d10–OmSMAX1D1M and 197 µM in the assay on OmKAI2d9–OmSMAX1D1M.
